Where a name gives a salt, the structure may show the parent alone.
Molecular target: T1, human mGluR2 receptor (Homo sapiens, UniProt Q14416)
T1 construct: expressed in transfected cells; host or cells: CHO cells (membranes)
Assay: [35S]GTPγS binding assay, mGluR2 positive allosteric modulation (PAM)
Assay type: biochemical
Conditions: membranes from CHO cells transfected with human mGluR2, in presence of glutamate at EC20; for EC50: -log EC50 with EC50 in M, read-out: GTPγS - hmGluR2 PAM pEC50 (converted); for GTPγS - hmGluR2 PAM Emax / Emax: maximal % effect relative to the control glutamate response; for Emax: read-out: GTPγS - hmGluR2 PAM Emax
Procedure: The [^35S]GTPγS binding assay is a functional membrane-based assay used to study G-protein coupled receptor (GPCR) function whereby incorporation of a non-hydrolysable form of GTP, [^35S]GTPγS (guanosine 5′-triphosphate, labelled with […] ^35S), is measured. The G-protein α subunit catalyzes the exchange of guanosine 5′-diphosphate (GDP) by guanosine triphosphate (GTP) and on activation of the GPCR by an agonist, [^35S]GTPγS, becomes incorporated and cannot be cleaved to continue the exchange cycle (Harper (1998) Current Protocols in Pharmacology 2.6.1-10, John Wiley & Sons, Inc.). […] Here we describe the use of the [^35S]GTPγS binding assay using membranes from cells transfected with the human mGluR2 receptor and adapted from Schaffhauser et al. ((2003) Molecular Pharmacology 4:798-810) for the detection of the positive allosteric modulation (PAM) properties of the compounds of this invention.
CHO-cells were cultured to pre-confluence and stimulated with 5 mM butyrate for 24 h. Cells were then collected by scraping in PBS and cell suspension was centrifuged (10 min at 4000 RPM in benchtop centrifuge). Supernatant was discarded and pellet gently resuspended in 50 mM Tris-HCl, pH 7.4 by mixing with a vortex and pipetting up and down. The suspension was centrifuged at 16,000 RPM (Sorvall RC-5C plus rotor SS-34) for 10 minutes and the supernatant discarded. The pellet was homogenized in 5 mM Tris-HCl, pH 7.4 using an ultra-turrax homogenizer and centrifuged again (18,000 RPM, 20 min, 4° C.). The final pellet was resuspended in 50 mM Tris-HCl, pH 7.4 and stored at −80° C. in appropriate aliquots before use. Protein concentration was determined by the Bradford method (Bio-Rad, USA) with bovine serum albumin as standard.
Measurement of mGluR2 positive allosteric modulatory activity of test compounds was performed as follows. Test compounds and glutamate were diluted in assay buffer containing 10 mM HEPES acid, 10 mM HEPES salt, pH 7.4, 100 mM NaCl, 3 mM MgCl2 and 10 μM GDP. Human mGlu2 receptor-containing membranes were thawed on ice and diluted in assay buffer supplemented with 14 μg/ml saponin. Membranes were pre-incubated with compound alone or together with a predefined (˜EC20) concentration of glutamate (PAM assay) for 30 min at 30° C. After addition of [^35S]GTPγS (f.c. 0.1 nM), assay mixtures were shaken briefly and further incubated to allow [^35S]GTPγS incorporation on activation (30 minutes, 30° C.). Final assay mixtures contained 7 μg of membrane protein in 10 mM HEPES acid, 10 mM HEPES salt, pH 7.4, 100 mM NaCl, 3 mM MgCl2, 10 μM GDP and 10 μg/ml saponin. Total reaction volume was 200 μl. Reactions were terminated by rapid filtration through Unifilter-96 GF/B plates (Perkin Elmer, Mass., USA) using a 96-well filtermate universal harvester. Filters were washed 6 times with ice-cold 10 mM NaH2PO4/10 mM Na2HPO4, pH 7.4. Filters were then air-dried, and 40 μl of liquid scintillation cocktail (Microscint-O) was added to each well. Membrane-bound radioactivity was counted in a Microplate Scintillation and Luminescence Counter from Perkin Elmer.
The concentration-response curves of representative compounds of the present invention-obtained in the presence of EC20 of mGluR2 agonist glutamate to determine positive allosteric modulation (PAM)-were generated using the Lexis software interface (developed at J&J).

T1 sequence (Q14416 19-872): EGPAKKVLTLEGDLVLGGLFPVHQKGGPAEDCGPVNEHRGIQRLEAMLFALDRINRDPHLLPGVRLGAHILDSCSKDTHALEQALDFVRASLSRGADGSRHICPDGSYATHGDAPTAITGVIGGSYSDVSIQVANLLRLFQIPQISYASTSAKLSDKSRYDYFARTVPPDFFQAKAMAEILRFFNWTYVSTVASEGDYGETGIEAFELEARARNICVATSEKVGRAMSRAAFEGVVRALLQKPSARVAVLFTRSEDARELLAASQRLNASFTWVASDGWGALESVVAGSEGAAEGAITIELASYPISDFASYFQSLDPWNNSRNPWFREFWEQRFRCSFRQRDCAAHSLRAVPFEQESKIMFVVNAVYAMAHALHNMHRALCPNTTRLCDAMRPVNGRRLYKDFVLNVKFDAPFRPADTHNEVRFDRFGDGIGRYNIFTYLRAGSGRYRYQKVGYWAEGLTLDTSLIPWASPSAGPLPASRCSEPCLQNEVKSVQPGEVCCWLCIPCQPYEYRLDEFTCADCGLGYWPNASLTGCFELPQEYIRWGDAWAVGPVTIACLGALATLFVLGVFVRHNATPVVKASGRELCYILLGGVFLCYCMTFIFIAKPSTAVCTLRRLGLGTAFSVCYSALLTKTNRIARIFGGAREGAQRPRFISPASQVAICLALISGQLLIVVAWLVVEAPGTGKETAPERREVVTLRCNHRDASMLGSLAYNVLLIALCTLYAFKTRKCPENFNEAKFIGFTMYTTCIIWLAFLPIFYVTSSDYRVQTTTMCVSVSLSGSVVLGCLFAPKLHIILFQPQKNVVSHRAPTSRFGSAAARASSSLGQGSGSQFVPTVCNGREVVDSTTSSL

SMILES	EC50 [nM]	GTPγS - hmGluR2 PAM Emax [%]	Emax [%]
FC(F)(F)c1c(CN2CCNC(c3ccccc3)C2)ccn2c(CC3CC3)nnc12 (single isomer, unassigned) [Compound 5b, 3-(cyclopropylmethyl)-7-[(3-phenyl-1-piperazinyl)methyl]-8-(trifluoromethyl)-1,2,4-triazolo[4,3-a]pyridine (*S)]	955	278	–
CN1CCN(Cc2ccn3c(CC4CC4)nnc3c2C(F)(F)F)CC1c1ccccc1 (single isomer, unassigned) [Compound 7b, 3-(cyclopropylmethyl)-7-[(4-methyl-3-phenyl-1-piperazinyl)methyl]-8-(trifluoromethyl)-1,2,4-triazolo[4,3-a]pyridine (*S)]	263	–	198
FC(F)(F)c1c(CN2CCO[C@H](c3ccccc3)C2)ccn2c(CC3CC3)nnc12 [Compound 2, 3-(Cyclopropylmethyl)-7-[[(2R)-2-phenyl-4-morpholinyl]methyl]-8-(trifluoromethyl)-1,2,4-triazolo[4,3-a]pyridine]	871	–	267
Fc1ccc(C2CN(Cc3ccn4c(CC5CC5)nnc4c3C(F)(F)F)CCN2)c(F)c1 (single isomer, unassigned) [Compound 19a, 3-(Cyclopropylmethyl)-7-{[(3*R)-3-(2,4-difluorophenyl)piperazin-1-yl]methyl}-8-(trifluoromethyl)[1,2,4]triazolo[4,3-a]pyridine]	912	320	–
FC(F)(F)c1c(CN2CCO[C@@H](c3ccccc3)C2)ccn2c(CC3CC3)nnc12 [Compound 4, 3-(Cyclopropylmethyl)-7-[[(2S)-2-phenyl-4-morpholinyl]methyl]-8-(trifluoromethyl)-1,2,4-triazolo[4,3-c]pyridine]	324	–	294
Fc1ccccc1C1CN(Cc2ccn3c(CC4CC4)nnc3c2C(F)(F)F)CCN1 (single isomer, unassigned) [Compound 6b, 3-(cyclopropylmethyl)-7-[[3-(2-fluorophenyl)-1-piperazinyl]methyl]-8-(trifluoromethyl)-1,2,4-triazolo[4,3-a]pyridine (*S)]	631	294	–
FC(F)(F)c1c(CN2CCNC(c3ccccc3)C2)ccn2c(CC3CC3)nnc12 (single isomer, unassigned) [Compound 5a, 3-(Cyclopropylmethyl)-7-[(3-phenyl-1-piperazinyl)methyl]-8-(trifluoromethyl)-1,2,4-triazolo[4,3-a]pyridine(*R)]	2240	–	270
Fc1ccc(C2CN(Cc3ccn4c(CC5CC5)nnc4c3C(F)(F)F)CCO2)c(F)c1 (single isomer, unassigned) [Compound 18, 3-(Cyclopropylmethyl)-7-{[(2*S)-2-(2,4-difluorophenyl)morpholin-4-yl]methyl}-8-(trifluoromethyl)[1,2,4]triazolo[4,3-a]pyridine]	51.3	242	–
Fc1ccc(N2CCN(Cc3ccn4c(CC5CC5)nnc4c3C(F)(F)F)C3CC32)c(F)c1 (racemic) [Compound 12, 2-[[3-(Cyclopropylmethyl)-8-(trifluoromethyl)-1,2,4-triazolo[4,3-a]pyridin-7-yl]methyl]-5-(2,4-difluorophenyl)-2,5-diazabicyclo[4.1.0]heptane (cis)]	12.6	–	277
CN1CCN(Cc2ccn3c(CC4CC4)nnc3c2C(F)(F)F)CC1c1ccccc1 (single isomer, unassigned) [Compound 7a, 3-(Cyclopropylmethyl)-7-[(4-methyl-3-phenyl-1-piperazinyl)methyl]-8-(trifluoromethyl)-1,2,4-triazolo[4,3-a]pyridine (*R)]	–	–	199
Fc1ccc(C2CN(Cc3ccn4c(CC5CC5)nnc4c3C(F)(F)F)CCO2)c(F)c1 (single isomer, unassigned) [Compound 17, 3-(Cyclopropylmethyl)-7-{[(2*R)-2-(2,4-difluorophenyl)morpholin-4-yl]methyl}-8-(trifluoromethyl)[1,2,4]triazolo[4,3-a]pyridine]	977	–	259

The next lines start with the values.

EC50 [nM]	GTPγS - hmGluR2 PAM Emax [%]	Emax [%]	SMILES
53.7	–	268	Cc1nnc2c(C(F)(F)F)c(CN3CCCC(C)(c4ccccc4)C3)ccn12 (single isomer, unassigned) [Compound 11, 3-Methyl-7-[(3-methyl-3-phenyl-1-piperidinyl)methyl]-8-(trifluoromethyl)-1,2,4-triazolo[4,3-a]pyridine (*R)]
12.6	248	–	CC1(c2ccccc2)CCN(Cc2ccn3c(CC4CC4)nnc3c2C(F)(F)F)C1 (single isomer, unassigned) [Compound 13, 3-(cyclopropylmethyl)-7-[(3-methyl-3-phenyl-1-pyrrolidinyl)methyl]-8-(trifluoromethyl)-1,2,4-triazolo[4,3-a]pyridine (*R)]
676	273	–	CC1(c2ccccc2)CN(Cc2ccn3c(CC4CC4)nnc3c2C(F)(F)F)CCO1 (single isomer, unassigned) [Compound 8a, 3-(Cyclopropylmethyl)-7-[(2-methyl-2-phenyl-4-morpholinyl)methyl]-8-(trifluoromethyl)-1,2,4-triazolo[4,3-a]pyridine (*R) hydrochloride hydrate (.1.1HCl.1.1H2O)]
37.2	–	292	CC1(c2ccccc2)CN(Cc2ccn3c(CC4CC4)nnc3c2C(F)(F)F)CCN1 (single isomer, unassigned) [Compound 3b, 3-(cyclopropylmethyl)-7-[(3-methyl-3-phenyl-1-piperazinyl)methyl]-8-(trifluoromethyl)-1,2,4-triazolo[4,3-a]pyridine (*S) hydrochloride hydrate (.2.4HCl.2.7H2O)]
–	–	193	Cc1nnc2c(C(F)(F)F)c(CN3CCCC(C)(c4ccccc4)C3)ccn12 (single isomer, unassigned) [Compound 10, 3-Methyl-7-[(3-methyl-3-phenyl-1-piperidinyl)methyl]-8-(trifluoromethyl)-1,2,4-triazolo[4,3-a]pyridine (*S)]
8.32	243	–	CC1(c2ccccc2)CN(Cc2ccn3c(CC4CC4)nnc3c2C(F)(F)F)CCO1 (single isomer, unassigned) [Compound 8b, 3-(cyclopropylmethyl)-7-[(2-methyl-2-phenyl-4-morpholinyl)methyl]-8-(trifluoromethyl)-1,2,4-triazolo[4,3-a]pyridine (*S) hydrochloride hydrate (.1.3HCl.1.6H2O)]
15.1	286	–	CC1(c2ccccc2)CCN(Cc2ccn3c(CC4CC4)nnc3c2C(F)(F)F)C1 (single isomer, unassigned) [Compound 14, 3-(cyclopropylmethyl)-7-[(3-methyl-3-phenyl-1-pyrrolidinyl)methyl]-8-(trifluoromethyl)-1,2,4-triazolo[4,3-a]pyridine (*S)]
–	–	271	CC1(c2ccccc2)CN(Cc2ccn3c(CC4CC4)nnc3c2C(F)(F)F)CCN1 (single isomer, unassigned) [Compound 3a, 3-(Cyclopropylmethyl)-7-[(3-methyl-3-phenyl-1-piperazinyl)methyl]-8-(trifluoromethyl)-1,2,4-triazolo[4,3-a]pyridine (*R) hydrochloride hydrate (.2HCl.2.5H2O)]
